pIC50: −log10 of the molar value. Where two headings read alike, the source gives them in different places.
Tests used:
[1] = biological target: human αVβ8 (Homo sapiens, UniProt P06756+P26012); experiment: human αVβ8 HTRF binding assay
Description: (§1) All binding assays used the HTRF (homogeneous time resolved fluorescence) technology from Cisbio International, therefore all assays are described as HTRF binding assays. The assay results for the Examples are listed above together with the characterization data. The HTRF binding assays are established for the following integrins: human αVβ6, human αVβ1, human αVβ3, human αVβ5, and human αVβ8. All assays used the following assay buffer: 20 mM Tris, pH 7.4, 1 mM MgCl2, 1 mM MnCl2, 0.01% Tween 20, and 0.01% BSA. Alternatively, a SPA-based assay was used for evaluation of receptor binding. […]

[2] = biological target: human αVβ5 (Homo sapiens, UniProt P06756+P18084); experiment: human αVβ5 HTRF binding assay
Chain of human αVβ5 (P06756 31-992 limits assumed): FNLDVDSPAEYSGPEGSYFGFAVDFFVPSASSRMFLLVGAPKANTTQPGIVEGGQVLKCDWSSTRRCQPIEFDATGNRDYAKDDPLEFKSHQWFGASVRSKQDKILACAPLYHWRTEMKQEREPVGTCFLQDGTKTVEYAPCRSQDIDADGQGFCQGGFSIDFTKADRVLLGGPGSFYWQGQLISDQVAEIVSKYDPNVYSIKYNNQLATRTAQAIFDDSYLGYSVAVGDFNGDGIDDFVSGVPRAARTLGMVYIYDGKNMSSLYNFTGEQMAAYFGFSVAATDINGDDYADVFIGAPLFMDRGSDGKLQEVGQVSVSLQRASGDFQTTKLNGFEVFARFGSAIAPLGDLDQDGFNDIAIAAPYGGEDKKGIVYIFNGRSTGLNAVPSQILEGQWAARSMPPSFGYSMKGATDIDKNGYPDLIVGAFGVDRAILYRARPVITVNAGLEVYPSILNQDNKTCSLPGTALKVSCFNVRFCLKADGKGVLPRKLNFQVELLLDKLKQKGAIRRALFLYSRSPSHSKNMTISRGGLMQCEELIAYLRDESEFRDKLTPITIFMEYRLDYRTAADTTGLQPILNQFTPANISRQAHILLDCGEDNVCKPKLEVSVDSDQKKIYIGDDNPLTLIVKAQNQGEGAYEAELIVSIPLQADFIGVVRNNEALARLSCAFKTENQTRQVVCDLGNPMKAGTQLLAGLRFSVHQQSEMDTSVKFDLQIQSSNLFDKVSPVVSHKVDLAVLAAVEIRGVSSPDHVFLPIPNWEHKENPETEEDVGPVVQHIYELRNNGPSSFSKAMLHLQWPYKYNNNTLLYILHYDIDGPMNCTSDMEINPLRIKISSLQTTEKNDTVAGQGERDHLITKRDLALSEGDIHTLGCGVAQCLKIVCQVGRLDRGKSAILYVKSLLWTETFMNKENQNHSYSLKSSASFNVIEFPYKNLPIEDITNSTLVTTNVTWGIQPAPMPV
Chain of human αVβ5 (P18084 24-719 limits assumed): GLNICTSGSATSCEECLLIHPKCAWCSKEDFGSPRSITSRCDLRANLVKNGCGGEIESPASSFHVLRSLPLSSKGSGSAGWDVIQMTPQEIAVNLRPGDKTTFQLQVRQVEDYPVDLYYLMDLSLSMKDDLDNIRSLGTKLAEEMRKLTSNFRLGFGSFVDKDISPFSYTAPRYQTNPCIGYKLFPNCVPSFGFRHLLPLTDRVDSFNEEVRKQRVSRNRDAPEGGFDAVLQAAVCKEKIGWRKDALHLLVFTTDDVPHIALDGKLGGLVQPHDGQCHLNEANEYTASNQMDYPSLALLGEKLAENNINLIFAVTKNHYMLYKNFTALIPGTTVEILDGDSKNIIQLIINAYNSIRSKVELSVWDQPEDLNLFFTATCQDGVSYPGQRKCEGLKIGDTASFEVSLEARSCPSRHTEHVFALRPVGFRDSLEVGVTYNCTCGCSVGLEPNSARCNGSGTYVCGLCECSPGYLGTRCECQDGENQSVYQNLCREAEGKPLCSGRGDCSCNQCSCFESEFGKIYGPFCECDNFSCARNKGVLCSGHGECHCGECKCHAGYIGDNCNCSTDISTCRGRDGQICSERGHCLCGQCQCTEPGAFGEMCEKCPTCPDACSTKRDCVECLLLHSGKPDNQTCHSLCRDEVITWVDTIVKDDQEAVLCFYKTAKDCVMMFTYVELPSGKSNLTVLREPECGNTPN
Description: as §1

[3] = biological target: human αVβ1 (Homo sapiens, UniProt P05556+P06756); experiment: human αVβ1 HTRF binding assay
Chain of human αVβ1 (P06756 31-992 limits assumed): as the sequence (P06756 31-992 limits assumed) above
Chain of human αVβ1 (P05556 21-728 limits assumed): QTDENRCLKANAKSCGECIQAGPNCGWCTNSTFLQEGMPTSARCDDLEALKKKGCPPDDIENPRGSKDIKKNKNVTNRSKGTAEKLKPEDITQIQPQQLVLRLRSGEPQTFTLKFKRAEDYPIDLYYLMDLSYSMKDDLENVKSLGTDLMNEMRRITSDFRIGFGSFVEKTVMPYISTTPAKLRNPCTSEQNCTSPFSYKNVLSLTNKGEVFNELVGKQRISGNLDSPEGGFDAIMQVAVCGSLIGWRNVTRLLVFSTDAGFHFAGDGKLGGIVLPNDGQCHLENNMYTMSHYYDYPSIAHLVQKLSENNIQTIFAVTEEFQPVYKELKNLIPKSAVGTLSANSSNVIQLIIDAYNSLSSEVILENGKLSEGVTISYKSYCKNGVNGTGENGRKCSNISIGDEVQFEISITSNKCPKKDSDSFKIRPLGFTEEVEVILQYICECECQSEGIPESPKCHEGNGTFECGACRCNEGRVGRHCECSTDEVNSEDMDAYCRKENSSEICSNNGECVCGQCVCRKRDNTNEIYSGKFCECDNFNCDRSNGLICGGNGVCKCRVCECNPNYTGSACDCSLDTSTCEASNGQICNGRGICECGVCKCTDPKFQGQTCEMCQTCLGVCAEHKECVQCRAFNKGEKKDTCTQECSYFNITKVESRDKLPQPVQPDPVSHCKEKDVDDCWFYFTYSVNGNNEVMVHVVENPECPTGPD
Description: (§2) All binding assays used the HTRF (homogeneous time resolved fluorescence) technology from Cisbio International, therefore all assays are described as HTRF binding assays. The assay results for the Examples are listed above together with the characterization data. The HTRF binding assays are established for the following integrins: human αVβ6, human αVβ1, human αVβ3, human αVβ5, and human αVβ8. All assays used the following assay buffer: 20 mM Tris, pH 7.4, 1 mM MgCl2, 1 mM MnCl2, 0.01% Tween 20, and 0.01% BSA. Alternatively, a SPA-based assay was used for evaluation of receptor binding.
(§3) […]

[4] = biological target: T1, human αVβ6 (Homo sapiens, UniProt P06756+P18564); experiment: human αVβ6 HTRF binding assay
T1 construct: purchased R & D systems 3817-AV
T1 sequence (P06756 31-992 limits assumed): as the sequence (P06756 31-992 limits assumed) above
T1 sequence (P18564 22-707 limits assumed): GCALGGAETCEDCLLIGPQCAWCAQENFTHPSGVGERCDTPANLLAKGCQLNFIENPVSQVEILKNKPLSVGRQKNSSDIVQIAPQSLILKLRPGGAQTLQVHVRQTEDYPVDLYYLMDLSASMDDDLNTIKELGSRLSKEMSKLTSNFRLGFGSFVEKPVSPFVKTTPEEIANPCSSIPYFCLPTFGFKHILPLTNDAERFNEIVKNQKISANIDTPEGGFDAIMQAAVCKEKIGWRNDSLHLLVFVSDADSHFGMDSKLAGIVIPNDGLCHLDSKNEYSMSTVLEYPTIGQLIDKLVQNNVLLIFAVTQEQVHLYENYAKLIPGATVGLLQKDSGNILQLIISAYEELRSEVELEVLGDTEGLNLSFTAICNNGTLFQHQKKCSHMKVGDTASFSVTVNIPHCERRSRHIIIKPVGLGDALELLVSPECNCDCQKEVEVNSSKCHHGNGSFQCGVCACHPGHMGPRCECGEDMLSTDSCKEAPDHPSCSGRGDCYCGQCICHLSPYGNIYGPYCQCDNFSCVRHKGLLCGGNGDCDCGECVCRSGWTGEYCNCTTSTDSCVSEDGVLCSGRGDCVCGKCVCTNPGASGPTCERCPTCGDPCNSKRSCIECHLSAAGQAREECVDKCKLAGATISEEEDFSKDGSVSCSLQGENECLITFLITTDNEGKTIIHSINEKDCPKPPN
How it was run: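 HTRF binding format with biotinylated integrin, FITC-fibronectin and streptavidin-terbium, run in 20 mM Tris pH 7.4, 1 mM MgCl2, 1 mM MnCl2, 0.01% Tween 20, 0.01% BSA. A SPA-based binding assay was an alternative.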

[5] = biological target: human αVβ3 (Homo sapiens, UniProt P05106+P06756); experiment: human αVβ3 HTRF binding assay
Chain of human αVβ3 (P06756 31-992 limits assumed): as the sequence (P06756 31-992 limits assumed) above
Chain of human αVβ3 (P05106 27-718 limits assumed): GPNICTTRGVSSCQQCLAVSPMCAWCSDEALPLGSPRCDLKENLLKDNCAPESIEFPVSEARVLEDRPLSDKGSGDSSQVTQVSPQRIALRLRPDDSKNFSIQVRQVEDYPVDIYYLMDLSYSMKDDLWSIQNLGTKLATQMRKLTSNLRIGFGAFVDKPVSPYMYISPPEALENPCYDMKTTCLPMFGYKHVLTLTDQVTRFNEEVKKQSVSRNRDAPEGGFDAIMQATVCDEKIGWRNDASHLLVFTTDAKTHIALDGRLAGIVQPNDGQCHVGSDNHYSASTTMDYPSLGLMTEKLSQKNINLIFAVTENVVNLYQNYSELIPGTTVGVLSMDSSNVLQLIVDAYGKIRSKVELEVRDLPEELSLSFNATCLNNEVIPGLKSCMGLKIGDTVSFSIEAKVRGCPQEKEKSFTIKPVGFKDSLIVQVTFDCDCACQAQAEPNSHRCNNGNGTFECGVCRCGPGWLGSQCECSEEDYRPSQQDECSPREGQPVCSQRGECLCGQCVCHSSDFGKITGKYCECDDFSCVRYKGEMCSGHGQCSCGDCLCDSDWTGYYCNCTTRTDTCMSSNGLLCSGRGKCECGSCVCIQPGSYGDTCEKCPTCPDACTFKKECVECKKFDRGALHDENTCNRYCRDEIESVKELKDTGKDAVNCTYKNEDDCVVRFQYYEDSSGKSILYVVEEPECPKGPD
Description: as §2, §3

Chain of human αVβ8 (P06756 31-992 limits assumed): as the sequence (P06756 31-992 limits assumed) above
Chain of human αVβ8 (P26012 43-684 limits assumed): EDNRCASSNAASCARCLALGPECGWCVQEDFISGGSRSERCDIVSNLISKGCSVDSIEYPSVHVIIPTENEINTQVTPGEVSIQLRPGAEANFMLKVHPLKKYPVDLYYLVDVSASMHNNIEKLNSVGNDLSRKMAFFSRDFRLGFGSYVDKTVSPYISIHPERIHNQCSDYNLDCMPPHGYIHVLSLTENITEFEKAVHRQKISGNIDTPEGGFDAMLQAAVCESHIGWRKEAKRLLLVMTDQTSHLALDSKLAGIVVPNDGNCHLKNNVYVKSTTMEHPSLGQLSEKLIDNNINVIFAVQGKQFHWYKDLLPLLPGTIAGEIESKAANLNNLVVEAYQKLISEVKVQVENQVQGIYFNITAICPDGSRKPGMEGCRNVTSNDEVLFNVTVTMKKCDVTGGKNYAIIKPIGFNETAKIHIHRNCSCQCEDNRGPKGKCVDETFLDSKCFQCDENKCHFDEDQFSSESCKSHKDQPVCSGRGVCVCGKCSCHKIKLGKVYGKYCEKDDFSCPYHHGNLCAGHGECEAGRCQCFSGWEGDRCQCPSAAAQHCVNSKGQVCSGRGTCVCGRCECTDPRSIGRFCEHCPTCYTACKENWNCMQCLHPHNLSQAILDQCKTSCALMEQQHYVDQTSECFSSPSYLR

SMILES | pIC50 [1] | pIC50 [2] | pIC50 [3] | pIC50 [4] | pIC50 ([5]; read-out: Human αVβ3 IC50) | pIC50 ([5]; printed as αVβ4, read-out: Human αVβ4 IC50)
Cc1cc(C)c(S(=O)(=O)N[C@@H](CNC(=O)c2ccn(CCc3ccc4c(n3)NCCC4)c2)C(=O)O)c(C)c1 [Example 119] | 7.51 | 9.70 | 8.20 | 9.30 | 8.82 | –
Cc1cc(C)c(S(=O)(=O)N[C@H](CNC(=O)c2cn(CCc3ccc4c(n3)NCCC4)cn2)C(=O)O)c(C)c1 [Example 114] | 6.81 | 9.30 | – | 8.70 | – | 8.36
CCCCOC(=O)N[C@@H](CNC(=O)c1cnn(CCc2ccc3c(n2)NCCC3)c1)C(=O)O [Example 20, (S)-2-((Butoxycarbonyl)amino)-3-(1-(2-(5,6,7,8-tetrahydro-1,8-naphthyridin-2-yl)ethyl)-1H-pyrazole-4-carboxamido)propanoic acid] | 7.07 | 9.70 | 7.57 | 8.96 | 8.74 | –
Cc1cc(C)c(S(=O)(=O)N[C@@H](CNC(=O)c2cnn(CCc3ccc4c(n3)NCCC4)c2)C(=O)O)c(C)c1 [Example 10, (S)-3-(1-(2-(5,6,7,8-Tetrahydro-1,8-naphthyridin-2-yl)ethyl)-1H-pyrazole-4-carboxamido)-2-((2,4,6-trimethylphenyl)sulfonamido)propanoic acid] | 7.85 | 9.70 | 8.20 | 9.30 | 8.72 | –
Cc1cc(C)c(S(=O)(=O)N[C@@H](CNC(=O)c2ncn(CCc3ccc4c(n3)NCCC4)n2)C(=O)O)c(C)c1 [Example 123] | 6.82 | 6.04 | 6.90 | 8.70 | 8.68 | –
O=C(N[C@@H](CNC(=O)c1cnn(CCc2ccc3c(n2)NCCC3)c1)C(=O)O)OCc1ccccc1 [Example 12, (S)-2-(((Benzyloxy)carbonyl)amino)-3-(1-(2-(5,6,7,8-tetrahydro-1,8-naphthyridin-2-yl)ethyl)-1H-pyrazole-4-carboxamido)propanoic acid] | 7.31 | 9.70 | – | 8.96 | 8.68 | –
Cc1cc(C)c(S(=O)(=O)N[C@@H](CNC(=O)c2cn(CCc3ccc4c(n3)NCCC4)nn2)C(=O)O)c(C)c1 [Example 111] | 7.20 | 8.96 | 7.34 | 9.10 | 8.19 | –
Cc1cc(C)c(S(=O)(=O)N[C@@H](CNC(=O)c2ccn(CCc3ccc4c(n3)NCCC4)n2)C(=O)O)c(C)c1 [Example 112] | 6.94 | 9.40 | 7.35 | 9.00 | 8.70 | –
O=C(N[C@H](CNC(=O)c1cn(CCc2ccc3c(n2)NCCC3)cn1)C(=O)O)OCc1ccccc1 [Example 121] | 6.61 | 9.52 | 7.11 | 8.64 | 8.80 | –
Cc1cc(C)c(S(=O)(=O)N[C@@H](CNC(=O)c2cnn(CCc3ccc4c(n3)NCCC4)n2)C(=O)O)c(C)c1 [Example 113] | 7.24 | 9.52 | 6.95 | 8.89 | 8.52 | –
